How the values were obtained:
Format in all cases: cell-based
[1] = system: culture of Leishmania donovani; experiment: in vitro antileishmanial activity; settings: in words
[2] = system: Plasmodium falciparum; experiment: antimalarial activity; settings: in words; clone not specified
[3] = system: Candida albicans ATCC 90028; experiment: in vitro antifungal activity, Candida albicans; settings: ATCC90028, read-out: antifungal C. albicans IC50
[4] = system: Plasmodium falciparum (D6 clone); experiment: in vitro antimalarial activity, D6 clone; settings: D6, read-out: antimalarial P. falciparum D6 (IC50)
[5] = system: P. falciparum (W2 clone); experiment: microbe, parasite or virus in culture; settings: Plasmodium falciparum, W2, read-out: antimalarial P. falciparum W2 (IC50)

Row | Compound | antileishmanial activity [1] | antimalarial activities [2] | further results
1 | CCCCCc1cc(O)c2c(c1OC(C)=O)OC(C)(CCC=C(C)C)C=C2 (racemic) [Compound 1, (±)-4-acetoxycannabichromene] | moderate antileishmanial activity | mild antimalarial activities | 
2 | C=C(C)C(O)CCC1(C)C=Cc2c(O)cc(CCCCC)cc2O1 (racemic) [Compound 2, (±)-3″-hydroxy-Δ^(4″,5″)-cannabichromene] | moderate antileishmanial activity |  | 
3 | CCCCCc1cc(O)c(C/C=C(\C)CCC=C(C)C)c(OC(C)=O)c1O [Compound 5, 5-acetyl-4-hydroxycannabigerol] | strong antileishmanial activity | mild antimalarial activities | 
4 | CCCCCc1c(C/C=C(\C)CCC=C(C)C)c(O)cc(O)c1OC(C)=O [Compound 6, 4-acetoxy-2-geranyl-5-hydroxy-3-n-pentylphenol] | moderate antileishmanial activity |  | 
5 | C[C@@H]1[C@H](O)[C@@H](C)/C=C/C=C/C=C/C=C/C=C/C=C/C=C/[C@H](O[C@@H]2O[C@H](C)[C@@H](O)[C@H](N)[C@@H]2O)C[C@@H]2O[C@](O)(C[C@@H](O)C[C@@H](O)[C@H](O)CC[C@@H](O)C[C@@H](O)CC(=O)O[C@H]1C)C[C@H](O)[C@H]2C(=O)O [amphotericin B] |  |  | IC50 [3]: 0.3 µM
6 | CCN(CC)CCCC(C)Nc1ccnc2cc(Cl)ccc12 (stereo not drawn) [chloroquine] |  |  | IC50 [4]: 0.1 µM; IC50 [5]: 0.5 µM
